# Data reported in article PMC10974084, “Combination of Betulinic Acid Fragments and Carbonic Anhydrase Inhibitors—A New Drug Targeting Approach” (Pharmaceutics, 2024).
# Like-named read-outs stand apart in the source and are kept apart here.
# Assays:
# [1] = test system: A375 melanoma cells; test: SRB cytotoxicity assay, A375; type: cell-based; details: Homo sapiens, read-out: IC50 A375
# Description: (§1) All of the compounds were dissolved in dimethyl sulfoxide (DMSO) to achieve a 20 mM stock solution. Cells were seeded in cell culture flasks 24 h before treatment. The treatment was performed for 24 h.
# (§2) The cytotoxicity of the drugs was determined in 2D tumor models using sulforhodamine B (SRB) assays. Treatment started 24 h after seeding the tumor cells in 96-well plates as previously described.
# [2] = test system: MDA-MB-231 spheroids; test: Spheroid cytotoxicity assay (luciferase), MDA-MB-231; type: cell-based, human; details: read-out: IC50 MDA-MB-231 spheroids
# Description: (§3) To determine cytotoxicity in the 3D tumor models, spheroid cytotoxicity assays were performed as previously described. […] For generation of single tumor spheroids, tumor cells resuspended in culture medium were seeded into 96-well plates, which were coated before with 0.7% agarose (SeaKem® GTG™ Agarose, Lonza, Basel, Switzerland). After the formation of spheroids (48 h), they were treated with serial dilutions of compounds. Measurements of luciferase activity were performed on day 7, after supplementation with D-luciferin (Perkin Elmer, Rodgau, Germany), on a Tecan Spark microplate reader (Tecan, Männedorf, Switzerland). Generation of dose-response curves and calculation of IC50 values including standard deviations were accomplished using GraphPad Prism8.
# (§4) Since the tumor cells stably express luciferase, analysis of spheroid growth and response to therapy is accomplished by measurement of bioluminescent signal intensity.
# [3] = test system: A2780 ovarian cancer cells; test: SRB cytotoxicity assay, A2780; type: cell-based; details: Homo sapiens, read-out: IC50 A2780
# Description: as §1, §2
# [4] = test system: Hs578T spheroids; test: Spheroid cytotoxicity assay (luciferase), Hs578T; type: cell-based, human; details: for IC50: read-out: IC50 Hs578T spheroids
# Description: as §3, §4
# [5] = test system: MCF-7 breast cancer cells; test: SRB cytotoxicity assay, MCF-7; type: cell-based; details: Homo sapiens, read-out: IC50 MCF-7
# Description: as §1, §2
# [6] = target: recombinant human carbonic anhydrase IX (Homo sapiens, UniProt Q16790); test: hCA IX esterase assay with p-nitrophenyl acetate
# Description: In this measurement, the enzymatically catalyzed hydrolysis of p-nitrophenyl acetate to p-nitrophenol was investigated. […] This was followed by measurement of the v-S-characteristics with inhibitor. […] For each run, 2 experimental series (biological replicate) were prepared simultaneously and measured for 10 min at a measurement interval of 8 s, also as a two-fold determination (technical replicate). […] The resulting reaction velocities, calculated from a calibration curve with p-nitrophenole under the same conditions, were plotted against the substrate concentration. The kinetic evaluation for competitive inhibition was then performed with the program GraphPad Prism.
# [7] = test system: MCF-7 cells; test: Cell cycle analysis, MCF-7; type: cell-based, human; details: MCF-7, 72 h, double the IC50 concentration
# Description: Cell cycle analyses were performed as previously described.
# Changes in the genetic material and the resulting mutations, which can affect the formation of tumors, usually occur during the proliferation process in the cell. A human cell passes through all four phases of this cell cycle within 20 h, with the set of its chromosomes varying between single and double. During apoptosis, fragmentation of DNA occurs along with an associated decrease in chromosome content. Fixation of cells with ethanol leads to permeabilization of the cell membrane and thus to loss of smaller DNA fragments, so that apoptotic cells contain less than the single set of chromosomes detected by a SubG1 peak. Given the different amounts of DNA in the cells and the proportional binding of propidium iodide to the DNA, the different fluorescence intensities can be used to infer the distribution of cells in the respective phases of the cell cycle.
# The MCF-7 breast cancer cell line was used in the experiments. An untreated sample was also included in the cell cycle analysis as a control. The results are depicted in Figure 4.
# [8] = test system: tumor cell lines (2D and 3D tumor models); test: Cytotoxicity summarised across tumor models; type: cell-based; details: Homo sapiens, read-out: cytotoxicity range in 2D and 3D tumor models
# Description: as §2
# To determine cytotoxicity in the 3D tumor models, spheroid cytotoxicity assays were performed as previously described. The luciferase-expressing, breast cancer cell lines MDA-MB-231 and Hs578T and derived spheroids were cultivated in RPMI medium (Sigma-Aldrich, Taufkirchen, Germany) containing 10% fetal bovine serum (BioWest, Nuaillé, France) and […] penicillin/streptomycin (Sigma-Aldrich) at 37 °C/5% CO2 in a humid atmosphere. For generation of single tumor spheroids, tumor cells resuspended in culture medium were seeded into 96-well plates, which were coated before with 0.7% agarose (SeaKem® GTG™ Agarose, Lonza, Basel, Switzerland). After the formation of spheroids (48 h), they were treated with serial dilutions of compounds. Measurements of luciferase activity were performed on day 7, after supplementation with D-luciferin (Perkin Elmer, Rodgau, Germany), on a Tecan Spark microplate reader (Tecan, Männedorf, Switzerland). Generation of dose-response curves and calculation of IC50 values including standard deviations were accomplished using GraphPad Prism8.
# [9] = test system: MCF-7 cells; test: Annexin V / propidium iodide assay, MCF-7; type: cell-based, human; details: double the IC50 concentration
# Description: The Annexin V assays were performed as previously described.
# Compounds 3, 5, and 9 were used to study cell death mechanisms and cell cycle analysis. A feature that can be used as it is only characteristic of apoptotic but not necrotic cells is Annexin V staining. During apoptosis, in addition to cell shrinkage, chromatin condensation, and the formation of apoptotic bodies, phosphatidylserine, which is originally inside the membrane, is translocated to the outside. There is a rapid change in phospholipid symmetry in the cell membrane, a process occurring so rapidly that the barrier function of the cell membrane is initially still present. The cellular protein Annexin V can bind to the displaced phosphatidylserine in the presence of calcium. To test for the presence of the cell membrane barrier, the non-membrane-permeable dye propidium iodide was added, which intercalates into the DNA. The flow cytometric data were divided into four areas (live cells, early and late apoptotic cells, and necrotic cells). Untreated cells were used as controls. The results are depicted in Figure 3. […] Even after 48 h, no significant difference between compound 3 and 5 was detected (55–60% live cells, 8% early apoptotic cells, 28–36% late apoptotic cells, 0.5–3% necrotic cells). […] Since both compounds are sulfonamides of betulin, the similar results are not surprising.
# [10] = A-375, SRB assay, 96 h incubation, mean ± SD
# [11] = Homo sapiens, MDA-MB-231, 168 h, 7 days of treatment, 3 independent experiments
# [12] = A2780, SRB assay, 96 h incubation, mean ± SD
# [13] = Homo sapiens, Hs-578T, 168 h, 7 days of treatment, 3 independent experiments
# [14] = MCF7, SRB assay, 96 h incubation, mean ± SD
# [15] = 7 days of treatment, 3 independent experiments
Structure (SMILES),"IC50 [1, 10]","IC50 [2, 11]","IC50 [3, 12]","IC50 [4, 13]","IC50 [5, 14]",Ki [6],melting point,other results
"NS(=O)(=O)c1nnc(NC(=O)CCC(=O)NCCOCCO)s1 [Compound 8, N-[5-(Aminosulfonyl)-1,3,4-thiadiazol-2-yl]-N’-[2-(2-hydroxyethoxy)-ethyl]-succinamide]",> 100 µM,> 100 µM,> 100 µM,> 100 µM,> 100 µM,0.146 µM,,
"C=C(C)C1CCC2(COC(=O)CCC(=O)Nc3nnc(S(N)(=O)=O)s3)CCC3(C)C(CCC4C5(C)CCC(OC(C)=O)C(C)(C)C5CCC43C)C12 (stereo not drawn) [Compound 9, (3β)-3-(Acetyloxy)-lup-20(29)-en-28-yl-4-{[5-(aminosulfonyl)-1,3,4-thiadiazol-2-yl]-amino}-4-oxobutanoate]",,,,,,1.25 ± 0.25 µM,,"IC50 ([1]; A-375, 96 h): 7.2 ± 0.6 µM; IC50 ([2]; Homo sapiens, MDA-MB-231, 168 h): 8.1 ± 1.4 µM; IC50 ([3]; A2780, 96 h): 8.7 ± 2 µM; cells in SubG1 phase [7]: 6.5%; IC50 [8]: 6.4 to 30.1 µM; IC50 ([4]; Homo sapiens, Hs-578T, 168 h): 28.4 ± 0.3 µM; resistance of Hs578T spheroids versus MDA-MB-231 spheroids ([4]; difference of spheroid IC50 values): only about three-fold differences; IC50 ([5]; MCF7, 96 h): 6.2 ± 0.2 µM; effect on cell survival compared to untreated control ([9]; MCF-7, 24 h): no difference; effect on cell viability (Annexin V) ([9]; MCF-7, 72 h): comparatively smaller decrease in cell viability; Ki relative to the unconjugated inhibitors ([6]; higher Ki than unconjugated inhibitors): approximately 10 fold"
C=C(C)C1CCC2(C(=O)NCCOCCO)CCC3(C)C(CCC4C5(C)CCC(OC(C)=O)C(C)(C)C5CCC43C)C12 (stereo not drawn) [Compound 10],4.3 ± 0.2 µM,,9.5 ± 0.9 µM,,5.9 ± 0.2 µM,,205 °C,
C=C(C)C1CCC2(C(=O)NCCOCCOC(=O)CCC(=O)O)CCC3(C)C(CCC4C5(C)CCC(OC(C)=O)C(C)(C)C5CCC43C)C12 (stereo not drawn) [Compound 11],10.5 ± 0.6 µM,,12.3 ± 1.5 µM,,7.3 ± 0.4 µM,,78 to 82 °C,
C=C(C)C1CCC2(C(=O)NCCOCCOC(=O)CCC(=O)Nc3nnc(S(N)(=O)=O)s3)CCC3(C)C(CCC4C5(C)CCC(OC(C)=O)C(C)(C)C5CCC43C)C12 (stereo not drawn) [Compound 12],> 100 µM,> 100 µM,35.1 ± 3.4 µM,> 100 µM,> 100 µM,,92 to 94 °C,"reduction of hCA IX activity ([6]; 10 µM of the compound, p-nitrophenyl acetate): 40%; remaining activity at 10 µM ([6]; read-out: residual activity (r.a.) of hCA IX): 60%"
"NS(=O)(=O)c1ccc(NC(=O)Nc2ccc(F)cc2)cc1 [Compound U-104, reference compound]",,,,,,,,"IC50 [2, 15]: 33.5 ± 7.6 µM; IC50 [4, 15]: 83.9 ± 12.4 µM"
